Values belong to the compound of their own block, whether it stands above or below them.
Legend:
[1] = Bioavailability in cynomolgus monkey at 1 mg/kg, iv by LC-MS/MS analysis; format: ADME, organism-based, Macaca fascicularis; conditions: in vivo
[2] = Microsomal stability in monkey liver microsomes assessed as parent compound remaining after 30 mins; format: ADME, Macaca mulatta, Microsome; conditions: rhesus monkey, read-out: Stabilty
[3] = Clearance in cynomolgus monkey at 1 mg/kg, iv by LC-MS/MS analysis; format: ADME, organism-based, Macaca fascicularis; conditions: in vivo
[4] = 1-octanol/phosphate buffer distribution coefficient, log D of the compound at pH 7.4 measured after 30 mins by HPLC-LC/MS based shake flask method; format: physicochemical
[5] = Microsomal stability in human liver microsomes assessed as parent compound remaining after 30 mins; format: ADME, Microsome; conditions: read-out: Stabilty
[6] = Tmax in rat at 3 mg/kg, po by LC-MS/MS analysis; format: ADME, organism-based; conditions: in vivo
[7] = Cmax in rat at 3 mg/kg, po by LC-MS/MS analysis; format: ADME, organism-based; design: route oral, dose 3 mg/kg; conditions: in vivo
[8] = Cmax in cynomolgus monkey at 3 mg/kg, po by LC-MS/MS analysis; format: ADME, organism-based, Macaca fascicularis; design: route oral, dose 3 mg/kg; conditions: in vivo
[9] = Bioavailability in mouse at 1 mg/kg, iv by LC-MS/MS analysis; format: ADME, organism-based; conditions: in vivo
[10] = Half life in cynomolgus monkey at 3 mg/kg, po by LC-MS/MS analysis; format: ADME, organism-based, Macaca fascicularis; conditions: in vivo
[11] = Half life in mouse at 3 mg/kg, po by LC-MS/MS analysis; format: ADME, organism-based; conditions: in vivo
[12] = Volume of distribution at steady state in mouse at 1 mg/kg, iv by LC-MS/MS analysis; format: ADME, organism-based; conditions: in vivo, read-out: Vdss
[13] = Volume of distribution at steady state in rat at 1 mg/kg, iv by LC-MS/MS analysis; format: ADME, organism-based; conditions: in vivo, read-out: Vdss
[14] = Volume of distribution at steady state in cynomolgus monkey at 1 mg/kg, iv by LC-MS/MS analysis; format: ADME, organism-based, Macaca fascicularis; conditions: in vivo, read-out: Vdss
[15] = Tmax in mouse at 3 mg/kg, po by LC-MS/MS analysis; format: ADME, organism-based; conditions: in vivo
[16] = AUClast in mouse at 3 mg/kg, po by LC-MS/MS analysis; format: ADME, organism-based; design: time 0 - last, route oral, dose 3 mg/kg; conditions: in vivo
[17] = Cmax in mouse at 3 mg/kg, po by LC-MS/MS analysis; format: ADME, organism-based; design: route oral, dose 3 mg/kg; conditions: in vivo
[18] = Tmax in cynomolgus monkey at 3 mg/kg, po by LC-MS/MS analysis; format: ADME, organism-based, Macaca fascicularis; conditions: in vivo
[19] = Half life in rat at 3 mg/kg, po by LC-MS/MS analysis; format: ADME, organism-based; conditions: in vivo
[20] = AUClast in rat at 3 mg/kg, po by LC-MS/MS analysis; format: ADME, organism-based; design: route oral, time 0 - last, dose 3 mg/kg; conditions: in vivo
[21] = Clearance in mouse at 1 mg/kg, iv by LC-MS/MS analysis; format: ADME, organism-based; conditions: in vivo
[22] = Bioavailability in rat at 1 mg/kg, iv by LC-MS/MS analysis; format: ADME, organism-based; conditions: in vivo
[23] = AUClast in cynomolgus monkey at 3 mg/kg, po by LC-MS/MS analysis; format: ADME, organism-based, Macaca fascicularis; design: time 0 - last, route oral, dose 3 mg/kg; conditions: in vivo
[24] = Clearance in rat at 1 mg/kg, iv by LC-MS/MS analysis; format: ADME, organism-based; conditions: in vivo
[25] = Microsomal stability in rat liver microsomes assessed as parent compound remaining after 30 mins; format: ADME, Microsome; conditions: read-out: Stabilty

logD at 0.5 h [4]: 1
Structure (SMILES): Cc1cncc(Oc2ccc3nc(COc4cccc(C(=O)O)c4)n(C)c3c2)c1

logD at 0.5 h [4]: 0.9
Structure (SMILES): COc1cncc(Oc2ccc3nc(COc4cccc(C(=O)O)c4)n(C)c3c2)c1

logD at 0.5 h [4]: 1.3 | remaining at 0.5 h [2]: 100% | remaining at 0.5 h [5]: 100% | remaining at 0.5 h [25]: 100%
Structure (SMILES): Cc1ccc(Oc2ccc3nc(COc4cccc(C(=O)O)c4)n(C)c3c2)c(C)n1

logD at 0.5 h [4]: 1.3 | remaining at 0.5 h [2]: 100% | remaining at 0.5 h [5]: 98% | remaining at 0.5 h [25]: 100%
Structure (SMILES): COc1cc(Oc2ccc3nc(COc4cccc(C(=O)O)c4)n(C)c3c2)ccn1

logD at 0.5 h [4]: 1.7 | remaining at 0.5 h [5]: 97%
Structure (SMILES): COc1cc(Oc2ccc3nc(COc4cccc(C(=O)O)c4)n(C)c3c2F)ccn1

logD at 0.5 h [4]: 1.7 | remaining at 0.5 h [2]: 85% | remaining at 0.5 h [5]: 96% | remaining at 0.5 h [25]: 96%
Structure (SMILES): COc1cc(Oc2ccc3nc(COc4cccc(C(=O)O)c4)n(C)c3c2)cc(C)n1

logD at 0.5 h [4]: 0.8 | remaining at 0.5 h [5]: 100%
Structure (SMILES): Cc1ccncc1Oc1ccc2nc(COc3cccc(C(=O)O)c3)n(C)c2c1

logD at 0.5 h [4]: 1.2 | Cmax [8]: 500 ng/mL | half-life [10]: 7.3 h | Vd [14]: 0.35 L/kg | bioavailability [1]: 18% | remaining at 0.5 h [2]: 100% | Tmax [18]: 4.5 h | remaining at 0.5 h [5]: 91% | AUC(0-t) [23]: 5120 ng·h/mL | clearance [3]: 2.08 mL/min/kg | remaining at 0.5 h [25]: 98%
Structure (SMILES): COc1cc(Oc2ccc3nc(COc4cccc(C(=O)O)c4)n(C)c3n2)cc(C)n1

logD at 0.5 h [4]: 1 | remaining at 0.5 h [5]: 98%
Structure (SMILES): Cc1ncccc1Oc1ccc2nc(COc3cccc(C(=O)O)c3)n(C)c2c1

logD at 0.5 h [4]: 0.9
Structure (SMILES): COc1ncccc1Oc1ccc2nc(COc3cccc(C(=O)O)c3)n(C)c2c1

logD at 0.5 h [4]: 2 | remaining at 0.5 h [2]: 84% | remaining at 0.5 h [5]: 96% | remaining at 0.5 h [25]: 13%
Structure (SMILES): Cc1cnc(Oc2cc(OC(C)C)c3nc(COc4cccc(C(=O)O)c4)n(C)c3c2)c(C)c1

logD at 0.5 h [4]: 1.8 | remaining at 0.5 h [5]: 94%
Structure (SMILES): CCOc1cc(Oc2ccc3nc(COc4cccc(C(=O)O)c4)n(C)c3c2)ccn1

logD at 0.5 h [4]: 1.3
Structure (SMILES): COc1ccc(Oc2ccc3nc(COc4cccc(C(=O)O)c4)n(C)c3c2)cn1

logD at 0.5 h [4]: 1.1
Structure (SMILES): Cn1c(COc2cccc(C(=O)O)c2)nc2ccc(Oc3ccnc(Cl)c3)cc21

logD at 0.5 h [4]: 1.7 | remaining at 0.5 h [5]: 100%
Structure (SMILES): CCOc1cc(Oc2ncc(C)cc2C)cc2c1nc(COc1cccc(C(=O)O)c1)n2C

Continued, compound first:

Structure (SMILES): Cc1cnc(Oc2ccc3nc(COc4cccc(C(=O)O)c4)n(C)c3c2)c(C)c1
bioavailability [1]: 89% | remaining at 0.5 h [2]: 80% | clearance [3]: 2.06 mL/min/kg

Structure (SMILES): CCc1cc(Oc2ccc3nc(COc4cccc(C(=O)O)c4)n(C)c3c2)ccn1
logD at 0.5 h [4]: 1.3 | remaining at 0.5 h [5]: 88%

Structure (SMILES): Cc1ccc(Oc2ccc3nc(COc4cccc(C(=O)O)c4)n(C)c3c2F)c(C)n1
logD at 0.5 h [4]: 1.6 | Tmax [6]: 2.25 h | Cmax [7]: 3490 ng/mL | Cmax [8]: 28800 ng/mL | bioavailability [9]: 21% | half-life [10]: 9.34 h | half-life [11]: 4.35 h | Vd [12]: 0.62 L/kg | Vd [13]: 0.27 L/kg | Vd [14]: 0.15 L/kg | Tmax [15]: 0.5 h | AUC(0-t) [16]: 2070 ng·h/mL | bioavailability [1]: 76% | Cmax [17]: 1290 ng/mL | remaining at 0.5 h [2]: 100% | Tmax [18]: 0.5 h | remaining at 0.5 h [5]: 100% | half-life [19]: 3.45 h | AUC(0-t) [20]: 28000 ng·h/mL | clearance [21]: 4.91 mL/min/kg | bioavailability [22]: 74% | AUC(0-t) [23]: 128000 ng·h/mL | clearance [3]: 0.4 mL/min/kg | clearance [24]: 1.29 mL/min/kg | remaining at 0.5 h [25]: 100%

Structure (SMILES): COc1nc(C)ccc1Oc1ccc2nc(COc3cccc(C(=O)O)c3)n(C)c2c1
logD at 0.5 h [4]: 1.4

Structure (SMILES): Cc1ccc(Oc2ccc3nc(COc4cccc(C(=O)O)c4)n(C)c3c2C)c(C)n1
logD at 0.5 h [4]: 1.8

Structure (SMILES): Cc1ccc(Oc2cc(C)c3nc(COc4cccc(C(=O)O)c4)n(C)c3c2)c(C)n1
logD at 0.5 h [4]: 1.7 | remaining at 0.5 h [5]: 100%

Structure (SMILES): CCOc1cc(Oc2ccc(C)nc2C)cc2c1nc(COc1cccc(C(=O)O)c1)n2C
logD at 0.5 h [4]: 1.6 | remaining at 0.5 h [5]: 100%

Structure (SMILES): Cc1cc(Oc2ccc3nc(COc4cccc(C(=O)O)c4)n(C)c3c2)ccn1
logD at 0.5 h [4]: 0.9 | remaining at 0.5 h [5]: 100%

Structure (SMILES): CCOc1cc(Oc2ccnc(OC)c2)cc2c1nc(COc1cccc(C(=O)O)c1)n2C
logD at 0.5 h [4]: 1.7 | remaining at 0.5 h [5]: 100%

Structure (SMILES): COc1cc(Oc2cc(C)c3nc(COc4cccc(C(=O)O)c4)n(C)c3c2)ccn1
logD at 0.5 h [4]: 1.7 | remaining at 0.5 h [5]: 100%

Structure (SMILES): Cc1ccc(Oc2ccc3nc(COc4cccc(C(=O)O)c4)n(C)c3c2)cn1
logD at 0.5 h [4]: 0.8 | remaining at 0.5 h [5]: 87%

Structure (SMILES): COc1cc(Oc2cc(OC(C)C)c3nc(COc4cccc(C(=O)O)c4)n(C)c3c2)ccn1
logD at 0.5 h [4]: 2 | remaining at 0.5 h [2]: 94% | remaining at 0.5 h [5]: 97% | remaining at 0.5 h [25]: 91%

Structure (SMILES): Cc1ccc(Oc2cc(OC(C)C)c3nc(COc4cccc(C(=O)O)c4)n(C)c3c2)c(C)n1
logD at 0.5 h [4]: 1.9 | remaining at 0.5 h [2]: 81% | remaining at 0.5 h [5]: 91% | remaining at 0.5 h [25]: 65%

Structure (SMILES): CCCOc1cc(Oc2ccc(C)nc2C)cc2c1nc(COc1cccc(C(=O)O)c1)n2C
logD at 0.5 h [4]: 2.2

Structure (SMILES): Cc1cc(Oc2ccc3nc(COc4cccc(C(=O)O)c4)n(C)c3c2)cc(C)n1
logD at 0.5 h [4]: 1

Structure (SMILES): COc1ncc(Oc2ccc3nc(COc4cccc(C(=O)O)c4)n(C)c3c2)cc1C
logD at 0.5 h [4]: 2 | remaining at 0.5 h [2]: 98% | remaining at 0.5 h [5]: 100% | remaining at 0.5 h [25]: 82%

Structure (SMILES): COc1ccc(Oc2ccc3nc(COc4cccc(C(=O)O)c4)n(C)c3c2)c(C)n1
logD at 0.5 h [4]: 1.7

Structure (SMILES): COc1cc(Oc2ccc(C)nc2C)cc2c1nc(COc1cccc(C(=O)O)c1)n2C
logD at 0.5 h [4]: 1.2

Structure (SMILES): Cn1c(COc2cccc(C(=O)O)c2)nc2ccc(Oc3cccnc3)cc21
logD at 0.5 h [4]: 0.5 | remaining at 0.5 h [5]: 100%

Source: ChEMBL document CHEMBL4665640, “Structure-Activity Relationship Studies of 3- or 4-Pyridine Derivatives of DS-6930” (ACS Med Chem Lett, 2019)
